ChEMBL document CHEMBL1909046, “DrugMatrix in vitro pharmacology data”

How the values were obtained:
[1] = target: T1, Alpha-1A adrenergic receptor (Rattus norvegicus, UniProt P43140); assay: DRUGMATRIX: Alpha-1A adrenergic receptor radioligand binding (ligand: prazosin); type: cell membranes, Wistar, Submaxillary gland, Membrane; details: Not Active = under 50% inhibition at 10 µM
T1 sequence (P43140 whole entry): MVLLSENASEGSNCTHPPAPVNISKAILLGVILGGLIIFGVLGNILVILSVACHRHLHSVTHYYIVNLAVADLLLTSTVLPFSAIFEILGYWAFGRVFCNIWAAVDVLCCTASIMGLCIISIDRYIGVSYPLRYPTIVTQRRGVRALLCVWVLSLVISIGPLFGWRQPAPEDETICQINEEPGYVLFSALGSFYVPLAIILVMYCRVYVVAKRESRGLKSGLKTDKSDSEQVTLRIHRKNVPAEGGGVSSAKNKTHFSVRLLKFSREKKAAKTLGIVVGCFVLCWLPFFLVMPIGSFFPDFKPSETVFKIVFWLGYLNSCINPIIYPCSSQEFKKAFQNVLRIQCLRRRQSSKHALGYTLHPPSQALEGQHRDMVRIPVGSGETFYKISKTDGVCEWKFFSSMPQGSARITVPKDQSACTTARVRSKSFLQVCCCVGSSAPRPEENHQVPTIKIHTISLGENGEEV

[2] = DRUGMATRIX: beta-Lactamase enzyme inhibition (substrate: Nitrocefin); design: species or system Bacillus cereus; details: Not Active = under 50% inhibition at 10 µM
[3] = target: Sodium-dependent dopamine transporter (Homo sapiens, UniProt Q01959); assay: DRUGMATRIX: Dopamine Transporter radioligand binding (ligand: [125I] RTI-55); type: cell membranes, CHO-K1, Membrane; details: cho-k1; Not Active = under 50% inhibition at 10 µM
Sodium-dependent dopamine transporter, sequence (Q01959 whole entry): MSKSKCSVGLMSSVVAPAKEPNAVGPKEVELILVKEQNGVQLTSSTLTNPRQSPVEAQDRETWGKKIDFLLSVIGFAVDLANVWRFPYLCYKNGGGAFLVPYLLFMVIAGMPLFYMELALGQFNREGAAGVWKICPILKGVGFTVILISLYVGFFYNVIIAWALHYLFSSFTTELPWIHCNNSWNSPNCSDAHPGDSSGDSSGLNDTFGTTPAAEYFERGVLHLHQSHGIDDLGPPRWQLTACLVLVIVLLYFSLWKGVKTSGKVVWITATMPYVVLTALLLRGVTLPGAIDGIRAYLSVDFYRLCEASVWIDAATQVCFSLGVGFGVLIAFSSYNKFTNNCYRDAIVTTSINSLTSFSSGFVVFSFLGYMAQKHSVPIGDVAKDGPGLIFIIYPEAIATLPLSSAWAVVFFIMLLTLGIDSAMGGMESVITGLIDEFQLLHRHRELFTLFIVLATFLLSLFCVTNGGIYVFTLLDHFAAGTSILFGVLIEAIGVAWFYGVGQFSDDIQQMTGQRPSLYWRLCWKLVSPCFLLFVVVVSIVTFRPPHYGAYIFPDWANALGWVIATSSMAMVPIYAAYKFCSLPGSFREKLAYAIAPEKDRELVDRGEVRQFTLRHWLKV

[4] = DRUGMATRIX: Glutamate, NMDA, Agonism radioligand binding (ligand: [3H] CGP-39653); type: cell membranes, Rattus norvegicus, Wistar, Cerebral cortex, Membrane; details: Not Active = under 50% inhibition at 10 µM
[5] = DRUGMATRIX: Glutamate, NMDA, Phencyclidine radioligand binding (ligand: [3H] TCP); type: cell membranes, Rattus norvegicus, Wistar, Cerebral cortex, Membrane; details: Not Active = under 50% inhibition at 10 µM
[6] = DRUGMATRIX: Interleukin IL-1 radioligand binding (ligand: [125I] interleukin 1beta); type: cell membranes, Membrane; details: nih3t3; Not Active = under 50% inhibition at 10 µM
[7] = target: T2, Cysteinyl leukotriene receptor 1 (Homo sapiens, UniProt Q9Y271); type: cell membranes, CHO-K1, Membrane; details: cho-k1; note: in other assays of this panel Not Active means under 50% inhibition at 10 µM
T2 sequence (Q9Y271 whole entry): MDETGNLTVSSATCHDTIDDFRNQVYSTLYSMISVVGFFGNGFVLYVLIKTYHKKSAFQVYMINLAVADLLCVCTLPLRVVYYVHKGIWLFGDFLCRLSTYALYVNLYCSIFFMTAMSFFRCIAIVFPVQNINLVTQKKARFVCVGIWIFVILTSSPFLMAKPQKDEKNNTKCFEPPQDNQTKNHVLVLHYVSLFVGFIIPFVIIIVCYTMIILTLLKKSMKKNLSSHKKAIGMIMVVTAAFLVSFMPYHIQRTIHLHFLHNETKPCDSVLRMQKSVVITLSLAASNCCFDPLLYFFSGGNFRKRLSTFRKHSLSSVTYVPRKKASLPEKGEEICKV

[8] = target: Mu-type opioid receptor (Homo sapiens, UniProt P35372); assay: DRUGMATRIX: Opiate mu (OP3, MOP) radioligand binding (ligand: [3H] Diprenorphine); type: cell membranes, CHO-K1, Membrane; details: cho-k1; Not Active = under 50% inhibition at 10 µM
Mu-type opioid receptor, sequence (P35372 whole entry): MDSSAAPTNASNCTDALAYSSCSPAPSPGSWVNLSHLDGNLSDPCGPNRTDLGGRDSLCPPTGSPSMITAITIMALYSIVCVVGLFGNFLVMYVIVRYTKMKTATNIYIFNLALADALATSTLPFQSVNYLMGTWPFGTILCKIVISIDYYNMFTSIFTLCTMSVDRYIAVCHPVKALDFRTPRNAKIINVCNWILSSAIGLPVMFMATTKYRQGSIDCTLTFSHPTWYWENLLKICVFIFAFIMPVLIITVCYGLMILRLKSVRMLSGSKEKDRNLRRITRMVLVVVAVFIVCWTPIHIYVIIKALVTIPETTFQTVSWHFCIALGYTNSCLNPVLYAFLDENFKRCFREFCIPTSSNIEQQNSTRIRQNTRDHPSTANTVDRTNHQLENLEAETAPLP

[9] = DRUGMATRIX: Potassium Channel [KATP] radioligand binding (ligand: [3H] Glyburide); type: cell membranes, Membrane; details: hit-t15; Not Active = under 50% inhibition at 10 µM
[10] = target: T3, Angiotensin-converting enzyme (Oryctolagus cuniculus, UniProt P12822); assay: biochemical; type: tissue-based, Lung;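 note: enzymatic inhibition of angiotensin-converting enzyme measured with FAPGG as the substrate; in other assays of this panel Not Active means under 50% inhibition at 10 µM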
T3 sequence (P12822 whole entry): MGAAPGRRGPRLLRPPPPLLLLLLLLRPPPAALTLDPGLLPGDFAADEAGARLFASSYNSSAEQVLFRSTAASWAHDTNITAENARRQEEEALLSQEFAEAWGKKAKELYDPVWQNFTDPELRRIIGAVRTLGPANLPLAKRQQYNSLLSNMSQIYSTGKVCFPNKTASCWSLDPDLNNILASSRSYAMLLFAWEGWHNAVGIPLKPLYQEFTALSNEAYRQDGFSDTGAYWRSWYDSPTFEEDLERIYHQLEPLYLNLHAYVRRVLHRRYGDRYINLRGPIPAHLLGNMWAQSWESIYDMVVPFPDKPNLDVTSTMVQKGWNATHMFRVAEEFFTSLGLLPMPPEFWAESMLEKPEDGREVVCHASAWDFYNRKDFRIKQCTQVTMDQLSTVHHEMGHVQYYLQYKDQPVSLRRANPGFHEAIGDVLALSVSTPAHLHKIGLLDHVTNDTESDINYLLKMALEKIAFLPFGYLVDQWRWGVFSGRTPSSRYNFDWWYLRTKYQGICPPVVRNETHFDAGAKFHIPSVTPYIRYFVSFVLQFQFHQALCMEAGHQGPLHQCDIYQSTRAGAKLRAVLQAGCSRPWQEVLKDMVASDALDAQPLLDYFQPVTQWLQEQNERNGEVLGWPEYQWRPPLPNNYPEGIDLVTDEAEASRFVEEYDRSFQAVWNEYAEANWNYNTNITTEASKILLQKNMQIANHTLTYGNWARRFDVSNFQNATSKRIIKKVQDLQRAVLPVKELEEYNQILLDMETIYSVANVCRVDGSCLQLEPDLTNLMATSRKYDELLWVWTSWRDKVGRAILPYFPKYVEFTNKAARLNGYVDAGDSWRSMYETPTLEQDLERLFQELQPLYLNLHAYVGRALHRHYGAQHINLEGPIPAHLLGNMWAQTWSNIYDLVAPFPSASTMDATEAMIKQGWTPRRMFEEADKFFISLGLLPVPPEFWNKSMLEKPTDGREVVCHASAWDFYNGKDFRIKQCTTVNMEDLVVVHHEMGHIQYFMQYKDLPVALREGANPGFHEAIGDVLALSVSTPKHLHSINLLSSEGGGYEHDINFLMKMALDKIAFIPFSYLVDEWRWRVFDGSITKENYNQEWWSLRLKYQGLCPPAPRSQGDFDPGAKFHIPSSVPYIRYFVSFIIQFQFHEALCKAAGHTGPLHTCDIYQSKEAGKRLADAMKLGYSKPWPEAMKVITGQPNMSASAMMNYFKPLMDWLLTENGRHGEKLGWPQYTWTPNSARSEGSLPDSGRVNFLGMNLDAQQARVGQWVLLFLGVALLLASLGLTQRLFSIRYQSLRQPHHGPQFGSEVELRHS

[11] = DRUGMATRIX: Purinergic P2X radioligand binding (ligand: [3H] alpha, beta-Methylene-ATP); type: cell membranes, Oryctolagus cuniculus, New Zealand albino, Urinary bladder, Membrane; details: Not Active = under 50% inhibition at 10 µM
[12] = target: Cytochrome P450 3A4 (Homo sapiens, UniProt P08684); details: bti-tn-5b1-4; note: in other assays of this panel Not Active means under 50% inhibition at 10 µM
Cytochrome P450 3A4, sequence (P08684 whole entry): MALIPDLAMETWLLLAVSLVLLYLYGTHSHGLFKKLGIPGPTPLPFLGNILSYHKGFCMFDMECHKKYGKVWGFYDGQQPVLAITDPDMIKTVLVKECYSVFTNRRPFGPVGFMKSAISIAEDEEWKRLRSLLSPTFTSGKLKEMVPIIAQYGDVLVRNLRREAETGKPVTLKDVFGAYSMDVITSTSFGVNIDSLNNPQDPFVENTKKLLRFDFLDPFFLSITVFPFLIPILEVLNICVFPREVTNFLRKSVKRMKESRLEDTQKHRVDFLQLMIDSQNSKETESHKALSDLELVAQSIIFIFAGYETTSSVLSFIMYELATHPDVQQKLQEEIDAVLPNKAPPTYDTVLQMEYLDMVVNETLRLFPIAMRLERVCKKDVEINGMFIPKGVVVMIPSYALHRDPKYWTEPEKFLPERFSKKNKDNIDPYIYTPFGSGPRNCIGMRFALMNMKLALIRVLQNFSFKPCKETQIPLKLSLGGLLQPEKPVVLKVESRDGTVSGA

[13] = target: Voltage-gated inwardly rectifying potassium channel KCNH2 (Homo sapiens, UniProt Q12809); details: hek293; note: in other assays of this panel Not Active means under 50% inhibition at 10 µM
Voltage-gated inwardly rectifying potassium channel KCNH2, sequence (Q12809 whole entry): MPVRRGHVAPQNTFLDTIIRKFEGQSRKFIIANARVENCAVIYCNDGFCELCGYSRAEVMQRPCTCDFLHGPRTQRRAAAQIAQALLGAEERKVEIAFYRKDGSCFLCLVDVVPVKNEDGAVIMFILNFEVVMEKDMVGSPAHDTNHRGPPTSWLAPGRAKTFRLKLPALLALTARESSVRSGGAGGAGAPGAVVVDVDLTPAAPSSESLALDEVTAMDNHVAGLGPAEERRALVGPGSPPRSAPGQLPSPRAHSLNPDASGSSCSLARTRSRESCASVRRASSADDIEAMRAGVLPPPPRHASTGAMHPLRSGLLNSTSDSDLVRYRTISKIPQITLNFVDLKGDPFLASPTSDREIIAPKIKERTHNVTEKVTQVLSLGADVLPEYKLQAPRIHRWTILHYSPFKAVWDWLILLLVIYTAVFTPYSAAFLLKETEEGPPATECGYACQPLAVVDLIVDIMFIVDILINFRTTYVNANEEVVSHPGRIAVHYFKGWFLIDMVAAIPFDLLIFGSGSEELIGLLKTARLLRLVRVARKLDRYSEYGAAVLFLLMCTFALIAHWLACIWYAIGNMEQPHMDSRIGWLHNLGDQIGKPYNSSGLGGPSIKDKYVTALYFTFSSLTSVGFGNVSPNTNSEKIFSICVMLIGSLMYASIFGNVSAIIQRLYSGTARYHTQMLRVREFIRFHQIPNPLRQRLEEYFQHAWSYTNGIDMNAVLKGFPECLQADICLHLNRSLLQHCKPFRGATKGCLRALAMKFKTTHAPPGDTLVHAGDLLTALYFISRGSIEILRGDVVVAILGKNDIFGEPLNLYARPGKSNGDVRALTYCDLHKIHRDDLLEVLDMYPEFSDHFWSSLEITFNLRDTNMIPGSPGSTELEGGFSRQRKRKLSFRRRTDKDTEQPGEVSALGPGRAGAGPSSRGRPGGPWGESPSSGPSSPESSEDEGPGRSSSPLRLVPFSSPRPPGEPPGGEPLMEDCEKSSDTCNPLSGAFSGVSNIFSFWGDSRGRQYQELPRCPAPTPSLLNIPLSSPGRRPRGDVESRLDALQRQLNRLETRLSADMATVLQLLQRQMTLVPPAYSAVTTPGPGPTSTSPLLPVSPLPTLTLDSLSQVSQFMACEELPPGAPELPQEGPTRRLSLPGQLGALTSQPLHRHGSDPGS

Brc1ccccc1 [BROMOBENZENE]
Not Active: IC50 [1] | IC50 [2] | Ki [2] | IC50 [3] | IC50 [4] | Ki [4] | IC50 [5] | Ki [5] | IC50 [6] | Ki [6] | IC50 [7] | IC50 [8] | IC50 [9] | Ki [9] | IC50 [10] | IC50 [11] | Ki [11] | IC50 [12] | Ki [12] | IC50 [13] | Ki [13]

COc1ccc2cc(CC(=O)O)ccc2c1
Not Active: IC50 [1] | IC50 [2] | Ki [2] | IC50 [3] | IC50 [4] | Ki [4] | IC50 [5] | Ki [5] | IC50 [6] | Ki [6] | IC50 [7] | IC50 [8] | IC50 [9] | Ki [9] | IC50 [10] | IC50 [11] | Ki [11] | IC50 [12] | Ki [12] | IC50 [13] | Ki [13]

CC[N+](CC)(CC)CCOc1cccc(OCC[N+](CC)(CC)CC)c1OCC[N+](CC)(CC)CC.[I-].[I-].[I-] [GALLAMINE TRIETHIODIDE]
Not Active: IC50 [1] | IC50 [2] | Ki [2] | IC50 [3] | IC50 [4] | Ki [4] | IC50 [5] | Ki [5] | IC50 [6] | Ki [6] | IC50 [7] | IC50 [8] | IC50 [9] | Ki [9] | IC50 [10] | IC50 [11] | Ki [11] | IC50 [12] | Ki [12] | IC50 [13] | Ki [13]

OCc1ccccc1 [BENZYL ALCOHOL]
Not Active: IC50 [1] | IC50 [2] | Ki [2] | IC50 [3] | IC50 [4] | Ki [4] | IC50 [5] | Ki [5] | IC50 [6] | Ki [6] | IC50 [7] | IC50 [8] | IC50 [9] | Ki [9] | IC50 [10] | IC50 [11] | Ki [11] | IC50 [12] | Ki [12] | IC50 [13] | Ki [13]

CC1(C)[C@@H](O[C@H]2O[C@H](C(=O)O)[C@@H](O)[C@H](O)[C@H]2O[C@@H]2O[C@H](C(=O)O)[C@@H](O)[C@H](O)[C@H]2O)CC[C@]2(C)[C@H]3C(=O)C=C4[C@@H]5C[C@@](C)(C(=O)O)CC[C@]5(C)CC[C@@]4(C)[C@]3(C)CC[C@@H]12 [GLYCYRRHIZIN]
Not Active: IC50 [1] | IC50 [2] | Ki [2] | IC50 [3] | IC50 [4] | Ki [4] | IC50 [5] | Ki [5] | IC50 [6] | Ki [6] | IC50 [7] | IC50 [8] | IC50 [9] | Ki [9] | IC50 [10] | IC50 [11] | Ki [11] | IC50 [12] | Ki [12] | IC50 [13] | Ki [13]

CCc1cccc2c3c([nH]c12)C(CC)(CC(=O)O)OCC3 (configuration not stated) [ETODOLAC]
Not Active: IC50 [1] | IC50 [2] | Ki [2] | IC50 [3] | IC50 [4] | Ki [4] | IC50 [5] | Ki [5] | IC50 [6] | Ki [6] | IC50 [7] | IC50 [8] | IC50 [9] | Ki [9] | IC50 [10] | IC50 [11] | Ki [11] | IC50 [12] | Ki [12] | IC50 [13] | Ki [13]

COCc1c(C(C)C)nc(C(C)C)c(/C=C/[C@@H](O)C[C@@H](O)CC(=O)O)c1-c1ccc(F)cc1 [CERIVASTATIN]
Not Active: IC50 [1] | IC50 [2] | Ki [2] | IC50 [3] | IC50 [4] | Ki [4] | IC50 [5] | Ki [5] | IC50 [6] | Ki [6] | IC50 [7] | IC50 [8] | IC50 [9] | Ki [9] | IC50 [10] | IC50 [11] | Ki [11] | IC50 [12] | Ki [12] | IC50 [13] | Ki [13]
